By melting point is commonly meant the temperature of the solid-liquid transition. As to `CCN(CC)c1ccc(C(=O)Cn2ncc(-c3ccc(S(C)(=O)=O)cc3)c(-c3ccc(F)cc3)c2=O)cc1` [Example 44, 2-(4-Diethylaminophenacyl)-4-(4-fluorophenyl)-5-[4-(methylsulfonyl)phenyl]-3(2H)-pyridazinone], the melting point lay in the range of 105 to 108 °C.
In the case of `C[C@@H](O)CNc1c(-c2ccc(S(C)(=O)=O)cc2)cnn(CC(F)(F)F)c1=O` [Example 307, 2-(2,2,2-Trifluoroethyl)-4-(2R-hydroxylpropylamino)-5-[4-(methylsulfonyl)phenyl]3(2H)-pyridazinone] it was 140 to 142 °C; in that of `CON=C(C)COc1c(-c2ccc(S(C)(=O)=O)cc2)cnn(-c2ccc(F)c(F)c2)c1=O` [Example 461, 2-(3,4-Difluorophenyl)-4-[2-(methoxyimino)-1-propoxy]-5-[4-(methylsulfonyl)phenyl]-3(2H)-pyridazinone], 143 to 145 °C; in that of `CS(=O)(=O)c1ccc(-c2cnn(CC(F)(F)F)c(=O)c2-c2ccc3c(c2)COC3=O)cc1` [Example 221, 2-(2,2,2-Trifluoroethyl)-4-(1-oxo-1,3-dihydro-2-benzofuran-5-yl)-5-[4-(methylsulfonyl)phenyl]-3(2H)-pyridazinone], 237 to 239 °C.
The compound `CS(=O)(=O)c1ccc(-c2cnn(CC(F)(F)F)c(=O)c2NC2CCCC2)cc1` [Example 296, 2-(2,2,2-Trifluoroethyl)-4-(cyclopentylamino)-5-[4-(methylsulfonyl)phenyl]-3(2H)-pyridazinone] showed a melting point of 134 to 139 °C.
With `CS(=O)(=O)c1ccc(-c2cnn(Cc3ccc4cc(F)ccc4n3)c(=O)c2-c2ccc(F)cc2)cc1` [Example 30, 2-(6-Fluoroquinolin-2-ylmethyl)-4-(4-fluorophenyl)-5-[4-(methylsulfonyl)phenyl]-3(2H)-pyridazinone], the melting point is 116 to 119 °C.
The value for `CC(C)COc1c(-c2ccc(S(N)(=O)=O)c(F)c2)cnn(CC(F)(F)F)c1=O` [Example 382, 2-(2,2,2-Trifluoroethyl)-4-(2-methylpropoxy)-5-[3-fluoro-4-(aminosulfonyl)phenyl]-3(2H)-pyridazinone] was 163 to 164 °C; that for `CS(=O)(=O)c1ccc(-c2cnn(Cc3ccccc3)c(=O)c2-c2ccc3c(c2)COC3=O)cc1` [Example 319, 2-Benzyl-4-(1-oxo-1,3-dihydro-2-benzofuran-5-yl)-5-[4-(methylsulfonyl)phenyl]-3(2H)-pyridazinone] was greater than 250 °C; that for `CS(=O)(=O)c1ccc(-c2cnn(CC(F)(F)F)c(=O)c2Oc2ccc(-c3ccccc3)cc2)cc1` [Example 268, 2-(2,2,2-Trifluoroethyl)-4-(4-phenylphenoxy)-5-[4-(methylsulfonyl)phenyl]-3(2H)-pyridazinone] was 163 to 165 °C.
For the compound `CS(=O)(=O)c1ccc(-c2cnn(Cc3ccccn3)c(=O)c2-c2ccc(F)cc2)cc1` [Example 27, 2-(2-Pyridylmethyl)-4-(4-fluorophenyl)-5-[4-(methylsulfonyl)phenyl]-3(2H)-pyridazinone], the melting point fell in the range of 182 to 184 °C.
The value for `CC(C)CCOc1c(-c2ccc(S(C)(=O)=O)cc2)cnn(-c2ccc(F)c(Cl)c2)c1=O` [Example 538, 2-(3-Chloro-4-fluorophenyl)-4-(3-methyl-1-butoxy)-5-[4-(methylsulfonyl)phenyl]-3(2H)-pyridazinone] was 148 to 152 °C; that for `Cc1cc(C)cc(-n2ncc(-c3ccc(S(C)(=O)=O)cc3)c(-c3ccc(F)cc3)c2=O)c1` [Example 170, 2-(3,5-Dimethylphenyl)-4-(4-fluorophenyl)-5-[4-(methylsulfonyl)phenyl]-3(2H)-pyridazinone] was 130 to 134 °C; that for `CC(C)(O)CCOc1c(-c2ccc(S(C)(=O)=O)cc2)cnn(-c2ccc(F)c(Cl)c2)c1=O` [Example 473, 2-(3-Chloro-4-fluorophenyl)-4-(3-hydroxy-3-methyl-1-butoxy)-5-[4-(methylsulfonyl)phenyl]-3(2H)-pyridazinone] was 108 to 110 °C.
For the compound `CS(=O)(=O)c1ccc(-c2cnn(CC(F)(F)F)c(=O)c2Nc2ccc(F)cc2)cc1` [Example 316, 2-(2,2,2-Trifluoroethyl)-4-(4-fluoroanilino)-5-[4-(methylsulfonyl)phenyl]-3(2H)-pyridazinone], the melting point was 158 to 160 °C.
The value for `C[C@H](O)CCOc1c(-c2ccc(S(C)(=O)=O)cc2)cnn(-c2ccc(F)c(F)c2)c1=O` [Example 546, (S)-2-(3,4-Difluorophenyl)-4-(3-hydroxy-1-butoxy)-5-[4-(methylsulfonyl)phenyl]-3(2H)-pyridazinone] was 128 to 130 °C; that for `Cc1cc(-c2c(-c3ccc(S(N)(=O)=O)cc3)cnn(-c3ccc(F)c(Cl)c3)c2=O)ccc1F` [Example 389, 2-(3-Chloro-4-fluorophenyl)-4-(4-fluoro-3-methylphenyl)-5-[4-(aminosulfonyl)phenyl]-3(2H)-pyridazinone] was 243 to 245 °C.
In the case of `COc1ccc(-n2ncc(-c3ccc(S(C)(=O)=O)cc3)c(-c3ccc(F)cc3)c2=O)cc1F` [Example 184, 2-(3-Fluoro-4-methoxyphenyl)-4-(4-fluorophenyl)-5-[4-(methylsulfonyl)phenyl]-3(2H)-pyridazinone] it was 97 to 101 °C; in that of `CS(=O)(=O)c1ccc(-c2cnn(CC(F)(F)F)c(=O)c2Oc2ccc(C#N)cc2)cc1` [Example 264, 2-(2,2,2-Trifluoroethyl)-4-(4-cyanophenoxy)-5-[4-(methylsulfonyl)phenyl]-3(2H)-pyridazinone], 179 to 181 °C; in that of `CS(=O)(=O)c1ccc(-c2cnn(-c3ccc(F)cc3)c(=O)c2COc2ccccc2)cc1` [Example 196, 2-(4-Fluorophenyl)-4-phenoxymethyl-5-[4-(methylsulfonyl)phenyl]-3(2H)-pyridazinone], 42 to 75 °C.
The value for `CS(=O)(=O)c1ccc(-c2cnn(-c3ccc(F)cc3)c(=O)c2-c2cccc(F)c2)cc1` [Example 458, 2-(4-Fluorophenyl)-4-(3-fluorophenyl)-5-[4-(methylsulfonyl)phenyl]-3(2H)-pyridazinone] was 199 to 201 °C; that for `CS(=O)(=O)c1ccc(-c2cnn(CCc3ccccc3)c(=O)c2-c2ccc(F)cc2)cc1` [Example 51, 2-Phenethyl-4-(4-fluorophenyl)-5-[4-(methylsulfonyl)phenyl]-3(2H)-pyridazinone] was 170 to 171 °C; that for `CS(=O)(=O)c1ccc(-c2cnn(CC(=O)c3ccc(C#N)cc3)c(=O)c2-c2ccc(F)cc2)cc1` [Example 49, 2-(4-Cyanophenacyl)-4-(4-fluorophenyl)-5-[4-(methylsulfonyl)phenyl]-3(2H)-pyridazinone] was 188 to 189 °C.
`Cc1n[nH]c(=O)c(-c2ccc(F)cc2)c1-c1ccc(S(C)(=O)=O)cc1` [Example 63, 4-(4-Fluorophenyl)-5-[4-(methylsulfonyl)phenyl]-6-methyl-3(2H)-pyridazinone]: the melting point was 290 °C (dec.).
In the case of `CS(=O)(=O)c1ccc(-c2cnn(CC(F)(F)F)c(=O)c2Nc2ccccc2)cc1` [Example 311, 2-(2,2,2-Trifluoroethyl)-4-anilino-5-[4-(methylsulfonyl)phenyl]-3(2H)-pyridazinone] it was 154 to 156 °C; in that of `NS(=O)(=O)c1ccc(-c2cnn(Cc3c(F)cc(F)cc3F)c(=O)c2-c2ccc(F)cc2)cc1` [Example 151, 2-(2,4,6-Trifluorobenzyl)-4-(4-fluorophenyl)-5-[4-(aminosulfonyl)phenyl]-3(2H)-pyridazinone], 201 to 203 °C; in that of `CSc1cc(-n2ncc(-c3ccc(S(C)(=O)=O)cc3)c(-c3ccc(F)cc3)c2=O)ccc1F` [Example 259, 2-[4-Fluoro-3-(methylthio)phenyl]-4-(4-fluorophenyl)-5-[4-(methylsulfonyl)phenyl]-3(2H)-pyridazinone], 105 to 107 °C.
The value for `Cc1ccc(-c2c(-c3ccc(S(C)(=O)=O)cc3)cnn(CC(F)(F)F)c2=O)cc1` [Example 79, 2-(2,2,2-Trifluoroethyl)-4-(4-methylphenyl)-5-[4-(methylsulfonyl)phenyl]-3(2H)-pyridazinone] was 154 to 156 °C; that for `CC(C)(C)C(=O)Cn1ncc(-c2ccc(S(C)(=O)=O)cc2)c(-c2ccc(F)cc2)c1=O` [Example 59, 2-(3,3-Dimethyl-2-oxobutyl)-4-(4-fluorophenyl)-5-[4-(methylsulfonyl)phenyl]-3(2H)-pyridazinone] was 168 to 170 °C.
In the case of `Cc1ccc(-c2c(-c3ccc(S(C)(=O)=O)cc3)cnn(-c3ccc(F)cc3)c2=O)cc1` [Example 229, 2-(4-Fluorophenyl)-4-(4-methylphenyl)-5-[4-(methylsulfonyl)-phenyl]-3(2H)-pyridazinone] it was 242 to 244 °C; in that of `CC=C(C)c1c(-c2ccc(S(C)(=O)=O)cc2)cnn(CC(F)(F)F)c1=O` [Example 223, 2-(2,2,2-Trifluoroethyl)-4-(2-buten-2-yl)-5-[4-(methylsulfonyl)phenyl]-3(2H)-pyridazinone], 175 to 180 °C.
On to `CC(C)(C)Sc1c(-c2ccc(S(C)(=O)=O)cc2)cnn(CC(F)(F)F)c1=O` [Example 290, 2-(2,2,2-Trifluoroethyl)-4-(tert-butylthio)-5-[4-(methylsulfonyl)phenyl]-3(2H)-pyridazinone], for which the melting point fell in the range of 186 to 189 °C.
For `CS(=O)(=O)c1ccc(-c2cnn(-c3cccc(Cl)c3)c(=O)c2SCc2ccccc2)cc1` [Example 359, 2-(3-Chlorophenyl)-4-(phenylmethylthio)-5-[4-(methylsulfonyl)phenyl]-3(2H)-pyridazinone], the melting point was in the range of 142 to 145 °C.
The value for `CC(C)(O)COc1c(-c2ccc(S(C)(=O)=O)cc2)cnn(-c2ccc(F)c(Cl)c2)c1=O` [Example 479, 2-(3-Chloro-4-fluorophenyl)-4-(2-hydroxy-2-methyl-1-propoxy)-5-[4-(methylsulfonyl)phenyl]-3(2H)-pyridazinone] was 122 to 124 °C.
For the compound `CS(=O)(=O)c1ccc(-c2cnn(CC(F)(F)F)c(=O)c2N2CCCCC2)cc1` [Example 304, 2-(2,2,2-Trifluoroethyl)-4-(1-piperidinyl)-5-[4-(methylsulfonyl)phenyl]-3(2H)-pyridazinone], the melting point is 160 to 161 °C.

The values are drawn from patent publication US20020028938A1, “Prostaglandin endoperoxide H synthase biosynthesis inhibitors” (priority 1997, published 2002).
